Laboratory results taken from patent US7709471B2, “Compounds” (AstraZeneca AB, priority 2006, dated 2010).

Tested on: human colon tumour cell line HT29
Experiment: Cellular Assay (phosphohistone H3 Ser10 mitotic marker, HT29)
Format: cell-based
Conditions: HT-29, 24 h, HT29 cells, read-out: IC50 (cellular assay, phosphohistone H3)

Structure (SMILES)	IC50 [nM]
CC(C)N1CC2(CC2)C(=O)N(C)c2cnc(Nc3cc(F)c(C(=O)N[C@@H]4CCN(C)C4)cc3Cl)nc21 [Example 310, (R)-5-chloro-2-fluoro-4-(9′-isopropyl-5′-methyl-6′-oxo-5′,6′,8′,9′-tetrahydrospiro[cyclopropane-1,7′-pyrimido[5,4-b][1,4]diazepine]-2′-ylamino)-N-(1-methylpyrrolidin-3-yl)benzamide]	< 1000
CCN1CCC(NC(=O)c2cc(Cl)c(Nc3ncc4c(n3)N(C(C)C)CC3(CC3)C(=O)N4C)cc2F)CC1 [Example 311, 5-chloro-N-(1-ethylpiperidin-4-yl)-2-fluoro-4-(9′-isopropyl-5′-methyl-6′-oxo-5′,6′,8′,9′-tetrahydrospiro[cyclopropane-1,7′-pyrimido[5,4-b][1,4]diazepine]-2′-ylamino)benzamide]	< 1000
CN1CCC(NC(=O)c2cc(Cl)c(Nc3ncc4c(n3)N(C3CCCC3)CCC(=O)N4C)c(Cl)c2F)CC1 [Example 330, 3,5-dichloro-4-[(2-cyclopentyl-6-methyl-5-oxo-2,6,9,11-tetrazabicyclo[5.4.0]undeca-7,9,11-trien-10-yl)amino]-2-fluoro-N-(1-methyl-4-piperidyl)benzamide]	< 1000
COc1cc(C(=O)NCC(C)(C)CN(C)C)ccc1Nc1ncc2c(n1)N(C1CCCC1)CC(C)(C)C(=O)N2C [Example 351, 4-[(2-cyclopentyl-4,4,6-trimethyl-5-oxo-2,6,9,11-tetrazabicyclo[5.4.0]undeca-7,9,11-trien-10-yl)amino]-N-(3-dimethylamino-2,2-dimethyl-propyl)-3-methoxy-benzamide]	< 300
CCN1CCC(NC(=O)c2cc(F)c(Nc3ncc4c(n3)N(C3CCCC3)CC(C)(C)C(=O)N4C)cc2F)CC1 [Example 355, 4-[(2-cyclopentyl-4,4,6-trimethyl-5-oxo-2,6,9,11-tetrazabicyclo[5.4.0]undeca-7,9,11-trien-10-yl)amino]-N-(1-ethyl-4-piperidyl)-2,5-difluoro-benzamide]	< 300
CN1CCC(NC(=O)c2cc(F)c(Nc3ncc4c(n3)N(C3CCCC3)CC(C)(C)C(=O)N4C)cc2F)CC1 [Example 356, 4-[(2-cyclopentyl-4,4,6-trimethyl-5-oxo-2,6,9,11-tetrazabicyclo[5.4.0]undeca-7,9,11-trien-10-yl)amino]-2,5-difluoro-N-(1-methyl-4-piperidyl)benzamide]	< 300
COc1cc(C(=O)NCCCN(C)C)ccc1Nc1ncc2c(n1)N(C1CCCC1)CC(C)(C)C(=O)N2C [Example 357, 4-[(2-cyclopentyl-4,4,6-trimethyl-5-oxo-2,6,9,11-tetrazabicyclo[5.4.0]undeca-7,9,11-trien-10-yl)amino]-N-(3-dimethylaminopropyl)-3-methoxy-benzamide]	< 300
COc1cc(C(=O)NCCN2CCCC2)ccc1Nc1ncc2c(n1)N(C1CCCC1)CC(C)(C)C(=O)N2C [Example 358, 4-[(2-cyclopentyl-4,4,6-trimethyl-5-oxo-2,6,9,11-tetrazabicyclo[5.4.0]undeca-7,9,11-trien-10-yl)amino]-3-methoxy-N-(2-pyrrolidin-1-ylethyl)benzamide]	< 300
COc1cc(C(=O)NCCN(C)C)ccc1Nc1ncc2c(n1)N(C1CCCC1)CC(C)(C)C(=O)N2C [Example 359, 4-[(2-cyclopentyl-4,4,6-trimethyl-5-oxo-2,6,9,11-tetrazabicyclo[5.4.0]undeca-7,9,11-trien-10-yl)amino]-N-(2-dimethylaminoethyl)-3-methoxy-benzamide]	< 300
COc1cc(C(=O)NC2CCC(N3CCCC3)CC2)ccc1Nc1ncc2c(n1)N(C1CCCC1)CC(C)(C)C(=O)N2C (centres unmarked) [Example 360, 4-[(2-cyclopentyl-4,4,6-trimethyl-5-oxo-2,6,9,11-tetrazabicyclo[5.4.0]undeca-7,9,11-trien-10-yl)amino]-3-methoxy-N-(4-pyrrolidin-1-ylcyclohexyl)benzamide]	< 300
COc1cc(C(=O)NC2CCN(C)CC2)c(F)cc1Nc1ncc2c(n1)N(C1CCCC1)CC(C)(C)C(=O)N2C [Example 361, 4-[(2-cyclopentyl-4,4,6-trimethyl-5-oxo-2,6,9,11-tetrazabicyclo[5.4.0]undeca-7,9,11-trien-10-yl)amino]-2-fluoro-5-methoxy-N-(1-methyl-4-piperidyl)benzamide]	< 300
CN(C)CCCNC(=O)c1ccc(Nc2ncc3c(n2)N(C2CCCC2)CC(C)(C)C(=O)N3C)c(Cl)c1 [Example 362, 3-chloro-4-[(2-cyclopentyl-4,4,6-trimethyl-5-oxo-2,6,9,11-tetrazabicyclo[5.4.0]undeca-7,9,11-trien-10-yl)amino]-N-(3-dimethylaminopropyl)benzamide]	< 300
COc1cc(C(=O)NC2CCC(N(C)C)CC2)ccc1Nc1ncc2c(n1)N(C1CCCC1)CC(C)(C)C(=O)N2C (centres unmarked) [Example 363, 4-[(2-cyclopentyl-4,4,6-trimethyl-5-oxo-2,6,9,11-tetrazabicyclo[5.4.0]undeca-7,9,11-trien-10-yl)amino]-N-(4-dimethylaminocyclohexyl)-3-methoxy-benzamide]	< 300

Further lines, results first:

IC50 [nM]	Structure (SMILES)
< 300	COc1cc(C(=O)NCCN2CCCC2)ccc1Nc1ncc2c(n1)N(C(C)C)CC1(CC1)C(=O)N2C [Example 312, 4-(9′-isopropyl-5′-methyl-6′-oxo-5′,6′,8′,9′-tetrahydrospiro[cyclopropane-1,7′-pyrimido[5,4-b][1,4]diazepine]-2′-ylamino)-3-methoxy-N-(2-(pyrrolidin-1-yl)ethyl)benzamide]
< 300	COc1cc(C(=O)NCC(C)(C)CN(C)C)ccc1Nc1ncc2c(n1)N(C(C)C)CC1(CC1)C(=O)N2C [Example 313, N-(3-(dimethylamino)-2,2-dimethylpropyl)-4-(9′-isopropyl-5′-methyl-6′-oxo-5′,6′,8′,9′-tetrahydrospiro[cyclopropane-1,7′-pyrimido[5,4-b][1,4]diazepine]-2′-ylamino)-3-methoxybenzamide]
< 300	COc1cc(C(=O)NCCN2CCCC2)c(F)cc1Nc1ncc2c(n1)N(C1CCCC1)CCC(=O)N2C [Example 333, 4-[(2-cyclopentyl-6-methyl-5-oxo-2,6,9,11-tetrazabicyclo[5.4.0]undeca-7,9,11-trien-10-yl)amino]-2-fluoro-5-methoxy-N-(2-pyrrolidin-1-ylethyl)benzamide]
< 300	CN1CC[C@@H](NC(=O)c2cc(F)c(Nc3ncc4c(n3)N(C3CCCC3)CCC(=O)N4C)cc2F)C1 [Example 334, 4-[(2-cyclopentyl-6-methyl-5-oxo-2,6,9,11-tetrazabicyclo[5.4.0]undeca-7,9,11-trien-10-yl)amino]-2,5-difluoro-N-[(3R)-1-methylpyrrolidin-3-yl]benzamide]
< 300	CN1C(=O)CCN(C2CCCC2)c2nc(Nc3cc(F)c(C(=O)NCCN4CCCC4)cc3F)ncc21 [Example 335, 4-[(2-cyclopentyl-6-methyl-5-oxo-2,6,9,11-tetrazabicyclo[5.4.0]undeca-7,9,11-trien-10-yl)amino]-2,5-difluoro-N-(2-pyrrolidin-1-ylethyl)benzamide]
< 300	COc1cc(C(=O)N[C@@H]2CCN(C)C2)c(Cl)cc1Nc1ncc2c(n1)N(C1CCCC1)CCC(=O)N2C [Example 336, 2-chloro-4-[(2-cyclopentyl-6-methyl-5-oxo-2,6,9,11-tetrazabicyclo[5.4.0]undeca-7,9,11-trien-10-yl)amino]-5-methoxy-N-[(3R)-1-methylpyrrolidin-3-yl]benzamide]
< 300	CCN1CCC(NC(=O)c2cc(OC)c(Nc3ncc4c(n3)N(C3CCCC3)CCC(=O)N4C)cc2Cl)CC1 [Example 337, 2-chloro-4-[(2-cyclopentyl-6-methyl-5-oxo-2,6,9,11-tetrazabicyclo[5.4.0]undeca-7,9,11-trien-10-yl)amino]-N-(1-ethyl-4-piperidyl)-5-methoxy-benzamide]
< 300	COc1cc(C(=O)NC2CCC(N(C)C)CC2)c(Cl)cc1Nc1ncc2c(n1)N(C1CCCC1)CCC(=O)N2C (centres unmarked) [Example 338, 2-chloro-4-[(2-cyclopentyl-6-methyl-5-oxo-2,6,9,11-tetrazabicyclo[5.4.0]undeca-7,9,11-trien-10-yl)amino]-N-(4-dimethylaminocyclohexyl)-5-methoxy-benzamide]
< 300	COc1cc(C(=O)NC2CCN(CC(C)C)CC2)ccc1Nc1ncc2c(n1)N(C1CCCC1)CCC(=O)N2C [Example 340, 4-[(2-cyclopentyl-6-methyl-5-oxo-2,6,9,11-tetrazabicyclo[5.4.0]undeca-7,9,11-trien-10-yl)amino]-3-methoxy-N-[1-(2-methylpropyl)-4-piperidyl]benzamide]
< 300	CN1CCC(NC(=O)c2ccc(Nc3ncc4c(n3)N(C3CCCC3)CCC(=O)N4C)c3c2OCO3)CC1 [Example 341, 7-[(2-cyclopentyl-6-methyl-5-oxo-2,6,9,11-tetrazabicyclo[5.4.0]undeca-7,9,11-trien-10-yl)amino]-N-(1-methyl-4-piperidyl)benzo[1,3]dioxole-4-carboxamide]
< 300	COc1cc(C(=O)NC2CCC(N3CCC3)CC2)ccc1Nc1ncc2c(n1)N(C1CCCC1)CCC(=O)N2C (centres unmarked) [Example 346, N-[4-(azetidin-1-yl)cyclohexyl]-4-[(2-cyclopentyl-6-methyl-5-oxo-2,6,9,11-tetrazabicyclo[5.4.0]undeca-7,9,11-trien-10-yl)amino]-3-methoxy-benzamide]
< 300	COc1cc(C(=O)NC2CCNCC2)ccc1Nc1ncc2c(n1)N(C1CCCC1)CC(C)(C)C(=O)N2C [Example 349, 4-[(2-cyclopentyl-4,4,6-trimethyl-5-oxo-2,6,9,11-tetrazabicyclo[5.4.0]undeca-7,9,11-trien-10-yl)amino]-3-methoxy-N-(4-piperidyl)benzamide]
< 300	CCN1CCC(NC(=O)c2ccc(Nc3ncc4c(n3)N(C3CCCC3)CC(C)(C)C(=O)N4C)c(OC)c2)CC1 [Example 350, 4-[(2-cyclopentyl-4,4,6-trimethyl-5-oxo-2,6,9,11-tetrazabicyclo[5.4.0]undeca-7,9,11-trien-10-yl)amino]-N-(1-ethyl-4-piperidyl)-3-methoxy-benzamide]
